The values below are quoted from earlier work in US7459569B2, “Method of forming iron hydroxypyrone compounds” (Vitra Pharmaceuticals Limited, priority 2002, dated 2008).

The conditions of this data set: given on an empty stomach.

Take `O=S(=O)([O-])[O-].[Fe+2]` [ferrous sulphate]: the absorption rate is reported as 30%.
